According to ChEMBL document CHEMBL3763148, “Synthesis, structure elucidation, DNA-PK and PI3K and anti-cancer activity of 8- and 6-aryl-substituted-1-3-benzoxazines” (Eur J Med Chem, 2016):

How the values were obtained:
[1] = system: NCI-H460; experiment: Cytotoxicity against human NCI-H460 cells assessed as cell growth inhibition at 10 uM after 48 hrs by SRB assay relative to control; assay type: functional; conditions: NCI-H460, 48 h, read-out: GI
[2] = Cytotoxicity against human SF295 cells assessed as cell growth inhibition at 10 uM after 48 hrs by SRB assay relative to control; assay type: functional; conditions: SF-295, 48 h, read-out: GI
[3] = Cytotoxicity against human RXF393 cells assessed as cell growth inhibition at 10 uM after 48 hrs by SRB assay relative to control; assay type: functional; conditions: RXF 393, 48 h, read-out: GI
[4] = Cytotoxicity against human UACC257 cells assessed as cell growth inhibition at 10 uM after 48 hrs by SRB assay relative to control; assay type: functional; conditions: UACC-257, 48 h, read-out: GI
[5] = biological target: Phosphatidylinositol 4,5-bisphosphate 3-kinase catalytic subunit gamma isoform (Homo sapiens) (UniProt P48736); experiment: Inhibition of PI3Kgamma (unknown origin) at 10 uM incubated for 60 mins by kinase-glo luminescence assay
Phosphatidylinositol 4,5-bisphosphate 3-kinase catalytic subunit gamma isoform (Homo sapiens), sequence (P48736 whole entry, looked up, canonical isoform): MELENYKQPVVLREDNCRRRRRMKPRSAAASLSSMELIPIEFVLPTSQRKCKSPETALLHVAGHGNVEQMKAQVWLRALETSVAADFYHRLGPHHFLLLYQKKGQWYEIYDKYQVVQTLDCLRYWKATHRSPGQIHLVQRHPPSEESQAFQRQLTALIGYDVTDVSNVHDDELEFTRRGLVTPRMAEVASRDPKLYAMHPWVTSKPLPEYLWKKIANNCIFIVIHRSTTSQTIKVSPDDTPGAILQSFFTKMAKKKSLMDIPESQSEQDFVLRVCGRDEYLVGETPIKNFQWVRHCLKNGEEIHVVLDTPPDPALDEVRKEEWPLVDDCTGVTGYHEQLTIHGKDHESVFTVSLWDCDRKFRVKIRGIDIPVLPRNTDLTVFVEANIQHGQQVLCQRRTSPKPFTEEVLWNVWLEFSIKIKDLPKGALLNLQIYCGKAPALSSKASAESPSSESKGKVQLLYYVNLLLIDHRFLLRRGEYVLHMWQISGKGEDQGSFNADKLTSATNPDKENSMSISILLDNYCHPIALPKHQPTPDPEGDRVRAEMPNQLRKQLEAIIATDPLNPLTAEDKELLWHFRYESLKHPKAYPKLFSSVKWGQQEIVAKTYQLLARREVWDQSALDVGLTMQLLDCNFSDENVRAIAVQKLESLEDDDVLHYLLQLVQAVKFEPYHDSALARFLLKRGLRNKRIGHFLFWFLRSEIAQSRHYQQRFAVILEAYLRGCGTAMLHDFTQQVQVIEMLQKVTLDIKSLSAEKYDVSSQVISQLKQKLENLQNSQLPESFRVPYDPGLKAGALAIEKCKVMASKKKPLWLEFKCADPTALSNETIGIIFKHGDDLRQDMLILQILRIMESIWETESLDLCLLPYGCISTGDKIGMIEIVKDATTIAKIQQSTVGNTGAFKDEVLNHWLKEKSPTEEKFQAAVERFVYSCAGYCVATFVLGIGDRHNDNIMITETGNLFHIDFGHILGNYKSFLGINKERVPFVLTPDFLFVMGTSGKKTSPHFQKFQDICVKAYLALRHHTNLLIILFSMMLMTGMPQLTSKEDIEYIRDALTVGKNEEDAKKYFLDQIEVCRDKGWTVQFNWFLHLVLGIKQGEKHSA

[6] = Cytotoxicity against human OVCAR3 cells assessed as cell growth inhibition at 10 uM after 48 hrs by SRB assay relative to control; assay type: functional; conditions: OVCAR-3, 48 h, read-out: GI
[7] = Cytotoxicity against human SNB19 cells assessed as cell growth inhibition at 10 uM after 48 hrs by SRB assay relative to control; assay type: functional; conditions: SNB-19, 48 h, read-out: GI
[8] = biological target: T1, Phosphatidylinositol 4,5-bisphosphate 3-kinase catalytic subunit delta isoform (Homo sapiens, UniProt O00329); experiment: Inhibition of PI3Kdelta (unknown origin) incubated for 60 mins by kinase-glo luminescence assay
T1 sequence (O00329 whole entry): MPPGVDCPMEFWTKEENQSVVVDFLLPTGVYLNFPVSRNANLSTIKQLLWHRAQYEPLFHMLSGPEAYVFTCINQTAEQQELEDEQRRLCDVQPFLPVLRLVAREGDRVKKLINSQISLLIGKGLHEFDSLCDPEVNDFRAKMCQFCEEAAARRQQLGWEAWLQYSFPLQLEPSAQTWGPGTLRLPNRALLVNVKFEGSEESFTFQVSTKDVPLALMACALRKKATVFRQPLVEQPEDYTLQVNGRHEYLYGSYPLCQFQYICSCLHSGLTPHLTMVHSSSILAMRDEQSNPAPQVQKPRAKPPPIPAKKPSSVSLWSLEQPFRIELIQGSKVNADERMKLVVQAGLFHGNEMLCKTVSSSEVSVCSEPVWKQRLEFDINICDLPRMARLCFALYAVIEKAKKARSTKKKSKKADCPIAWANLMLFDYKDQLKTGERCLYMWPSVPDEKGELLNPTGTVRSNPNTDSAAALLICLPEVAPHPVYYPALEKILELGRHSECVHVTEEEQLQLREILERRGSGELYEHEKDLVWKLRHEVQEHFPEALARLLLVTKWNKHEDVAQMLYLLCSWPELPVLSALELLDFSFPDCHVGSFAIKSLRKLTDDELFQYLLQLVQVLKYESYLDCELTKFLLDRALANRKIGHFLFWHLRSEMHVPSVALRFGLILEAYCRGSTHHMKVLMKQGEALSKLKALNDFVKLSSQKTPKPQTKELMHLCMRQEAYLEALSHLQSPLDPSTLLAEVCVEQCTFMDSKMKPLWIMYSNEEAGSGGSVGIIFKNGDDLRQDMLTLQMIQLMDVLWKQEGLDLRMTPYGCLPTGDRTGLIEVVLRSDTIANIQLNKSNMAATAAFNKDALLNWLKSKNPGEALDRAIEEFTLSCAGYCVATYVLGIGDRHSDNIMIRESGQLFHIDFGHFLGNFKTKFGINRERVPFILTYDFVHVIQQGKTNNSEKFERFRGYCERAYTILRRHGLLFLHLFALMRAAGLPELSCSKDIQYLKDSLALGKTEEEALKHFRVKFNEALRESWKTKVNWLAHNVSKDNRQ

[9] = system: SK-MEL-5; experiment: Cytotoxicity against human SK-MEL-5 cells assessed as cell growth inhibition at 10 uM after 48 hrs by SRB assay relative to control; assay type: functional; conditions: SK-MEL-5, 48 h, read-out: GI
[10] = system: EKVX; experiment: Cytotoxicity against human EKVX cells assessed as cell growth inhibition at 10 uM after 48 hrs by SRB assay relative to control; assay type: functional; conditions: read-out: GI
[11] = Cytotoxicity against human HOP92 cells assessed as cell growth inhibition at 10 uM after 48 hrs by SRB assay relative to control; assay type: functional; conditions: HOP-92, 48 h, read-out: GI
[12] = Cytotoxicity against human SW620 cells assessed as cell growth inhibition at 10 uM after 48 hrs by SRB assay relative to control; assay type: functional; conditions: SW-620, 48 h, read-out: GI
[13] = system: SK-MEL-2; experiment: Cytotoxicity against human SK-MEL-2 cells assessed as cell growth inhibition at 10 uM after 48 hrs by SRB assay relative to control; assay type: functional; conditions: SK-MEL-2, 48 h, read-out: GI
[14] = system: M14; experiment: Cytotoxicity against human M14 cells assessed as cell growth inhibition at 10 uM after 48 hrs by SRB assay relative to control; assay type: functional; conditions: M14, 48 h, read-out: GI
[15] = Cytotoxicity against human SF268 cells assessed as cell growth inhibition at 10 uM after 48 hrs by SRB assay relative to control; assay type: functional; conditions: SF-268, 48 h, read-out: GI
[16] = system: HT-29; experiment: Cytotoxicity against human HT-29 cells assessed as cell growth inhibition at 10 uM after 48 hrs by SRB assay relative to control; assay type: functional; conditions: HT-29, 48 h, read-out: GI
[17] = system: NCI-H23; experiment: Cytotoxicity against human NCI-H23 cells assessed as cell growth inhibition at 10 uM after 48 hrs by SRB assay relative to control; assay type: functional; conditions: NCI-H23, 48 h, read-out: GI
[18] = Cytotoxicity against human LOXIMVI cells assessed as cell growth inhibition at 10 uM after 48 hrs by SRB assay relative to control; assay type: functional; conditions: LOX IMVI, read-out: GI
[19] = Cytotoxicity against human SNB75 cells assessed as cell growth inhibition at 10 uM after 48 hrs by SRB assay relative to control; assay type: functional; conditions: SNB-75, 48 h, read-out: GI
[20] = system: A498; experiment: Cytotoxicity against human A498 cells assessed as cell growth inhibition at 10 uM after 48 hrs by SRB assay relative to control; assay type: functional; conditions: A498, 48 h, read-out: GI
[21] = Cytotoxicity against human HCT116 cells assessed as cell growth inhibition at 10 uM after 48 hrs by SRB assay relative to control; assay type: functional; conditions: HCT-116, 48 h, read-out: GI
[22] = Cytotoxicity against human UO31 cells assessed as cell growth inhibition at 10 uM after 48 hrs by SRB assay relative to control; assay type: functional; conditions: UO-31, 48 h, read-out: GI
[23] = Cytotoxicity against human SF539 cells assessed as cell growth inhibition at 10 uM after 48 hrs by SRB assay relative to control; assay type: functional; conditions: SF-539, 48 h, read-out: GI
[24] = Cytotoxicity against human HCT15 cells assessed as cell growth inhibition at 10 uM after 48 hrs by SRB assay relative to control; assay type: functional; conditions: HCT-15, 48 h, read-out: GI

Row | Structure (SMILES) | inhibition of growth at 10 µM [1] [%] | inhibition of growth at 10 µM [2] [%] | inhibition of growth at 10 µM [3] [%] | inhibition of growth at 10 µM [4] [%] | inhibition [5] [%] | inhibition of growth at 10 µM [6] [%] | inhibition of growth at 10 µM [7] [%] | IC50 [8] [µM] | inhibition of growth at 10 µM [9] [%] | inhibition of growth at 10 µM [10] [%] | inhibition of growth at 10 µM [12] [%] | inhibition of growth at 10 µM [13] [%] | inhibition of growth at 10 µM [14] [%] | inhibition of growth at 10 µM [15] [%] | inhibition of growth at 10 µM [16] [%] | inhibition of growth at 10 µM [17] [%] | inhibition of growth at 10 µM [18] [%] | inhibition of growth at 10 µM [19] [%] | inhibition of growth at 10 µM [20] [%] | inhibition of growth at 10 µM [21] [%] | other results
1 | O=c1nc(N2CCOCC2)oc2c(-c3cccc4ccccc34)cccc12 | -10 | 10.8 | 38.9 | 3.51 | 29 | 14.2 | 8.18 | 0.64 | 20.8 | 18.9 | 2.12 | -0.37 | 6.76 | 19.4 | 10.4 | 10.7 | 19.9 | 53.1 | 92 | 3.34 | inhibition of growth at 10 µM [11]: 39.9%; inhibition of growth at 10 µM [22]: 46.6%; inhibition of growth at 10 µM [23]: 15%; inhibition of growth at 10 µM [24]: 6.69%
2 | NC(=O)c1ccc(-c2cccc3c(=O)nc(N4CCOCC4)oc23)cc1 | -5.06 | 6.07 | -4.38 | -3.78 | 10 | 0.57 | 0.88 | > 10 | 2.24 | 2.66 | -3.57 | -2.17 | 2.25 | 6.21 | -0.51 | 7.55 | 8.86 | 25.5 | 1.82 | -3.97 | inhibition of growth at 10 µM [22]: 10.8%; inhibition of growth at 10 µM [23]: -1.74%; inhibition of growth at 10 µM [24]: -2.19%
3 | COc1ccc(-c2cccc3c(=O)nc(N4CCOCC4)oc23)cc1 | -5.69 | 2.78 | 7.94 | 4.28 | 7 | 5.94 | -0.25 | 2.7 | 9.19 | 11.1 | 0.87 | -9.8 | -0.43 | 6.91 | 10.8 | 14.3 | 13 | 38.2 | 27.1 | 7.05 | inhibition of growth at 10 µM [11]: 34.8%; inhibition of growth at 10 µM [22]: 17.4%; inhibition of growth at 10 µM [23]: -2.27%; inhibition of growth at 10 µM [24]: 3.13%
